Laboratory results published in patent publication US20240092784A1, “CONDENSED HETEROCYCLIC COMPOUND” (NISSAN CHEMICAL CORPORATION, priority 2020, published 2024).

Each compound was assayed against human SPR (Homo sapiens (Human), UniProt P35270) (assay: Evaluation Example 1: Measurement of human SPR inhibitory activity (sepiapterin absorbance at 420 nm)). Conditions: 240 minutes at room temperature.
Assay type: biochemical
Method: Human SPR was prepared as described below. The full-length human SPR (1-261) cDNA was purchased from Eurofins Genomics as an artificially synthesized plasmid containing a DNA sequence optimized for the E. coli expression system so that the sequence of the expressed protein after transcription and translation matches the sequence described in UniprotKB (P35270).
Linearized insert and vector were prepared by PCR using primers designed for amplification of human SPR cDNA and primers designed to contain the thrombin recognition sequence of pET28a (Novagen) and a polyhistidine tag. Cloning was performed using In-Fusion (registered trademark) HD Cloning Kit (TaKaRa) to thereby construct a human SPR expression plasmid. The resultant human SPR expression plasmid was transformed into BL21 (DE3) competent cells (INVITROGEN).
The cells were inoculated into LB medium (1% triptone, 0.5% yeast extract, 1% sodium chloride) containing […] of kanamycin, and then precultured at 37° C. overnight. The precultured cells were inoculated into TB medium (1.2% triptone, 2.4% yeast extract, 9.4% dipotassium hydrogen phosphate, 2.2% potassium dihydrogen phosphate, 0.8% glycerin) containing […] of kanamycin, and the cultured at 37° C., to thereby induce SPR expression with 0.5 mM IPTG for four hours. After the induction, the cells were collected by centrifugation at 6,000 G for 30 minutes and washed with PBS, and the washing was discarded. The washed cells were suspended in buffer solution A (20 mM MES, pH 6.5, 100 mM sodium chloride, 1 mM DTT, 5 mM imidazole). Subsequently, the cell suspension was subjected to ultrasonic treatment to thereby homogenize the cells. The cell homogenate was clarified by centrifugation at 30,000 G for 60 minutes and then filtered with a […]. The filtrate was allowed to pass through HisTrapFF 5 mL column (GE Healthcare). The resin was washed with buffer A, and then gradient elution was performed with buffer B (20 mM MES, pH 6.5, 100 mM sodium chloride, 1 mM DTT, 500 mM imidazole). Thrombin was added to a fraction containing the SPR protein, and the mixture was dialyzed in buffer A overnight, to thereby cleave the tag. After removal of the thrombin by with Benzamidine Sepharose 4 FF (GE Healthcare), the resultant product was allowed to pass through the HisTrapFF 5 mL column, to thereby remove the tag, followed by concentration with Amicon Ultra 10,000 NMWL (Merck Millipore). The concentrate was purified by gel filtration using HiLoad 16/60 Superdex 75 pg (GE Healthcare) equilibrated with buffer C (20 mM MES, pH 6.5, 100 mM sodium chloride, 1 mM DTT). The fraction containing SPR protein was concentrated and then cryopreserved at −80° C.
Human SPR inhibitory activity was measured by using a 384-well low adsorption clear plate (Greiner) with buffer D containing 100 mM Tris-HCl (pH 7.5) (Thermo Fisher Scientific) and 0.01% bovine serum albumin (Sigma). A compound was diluted with DMSO to a concentration of 1 mM, and a 1 μL aliquot of the preparation was diluted with 250 μL of buffer D. The thus-diluted compound was dispensed into the 384-well plate at […]. Thereafter, human SPR was diluted with buffer D to 200 ng/mL and then dispensed into the 384-well plate at 20 μL/well. Subsequently, 40 μL of ultrapure water containing 120 μM Sepiapterin (WuXi AppTec) and 120 μM NADPH (Nacalai) was added to each well, and mixed with a vortex mixer, to thereby initiate the reaction. The reaction mixture was incubated at room temperature for 240 minutes, and the reaction was terminated by addition of 10 μL of ultrapure water containing 2% formic acid (Nacalai). In order to determine the amount of sepiapterin after termination of the reaction, the absorbance at 420 nm was measured by applying the 384-well plate to EnSpire multimode plate reader (Perkin Elmer). The percent inhibition (%) of human SPR by the test compound was calculated by the following formula. […]

Sequence of human SPR (P35270 whole entry): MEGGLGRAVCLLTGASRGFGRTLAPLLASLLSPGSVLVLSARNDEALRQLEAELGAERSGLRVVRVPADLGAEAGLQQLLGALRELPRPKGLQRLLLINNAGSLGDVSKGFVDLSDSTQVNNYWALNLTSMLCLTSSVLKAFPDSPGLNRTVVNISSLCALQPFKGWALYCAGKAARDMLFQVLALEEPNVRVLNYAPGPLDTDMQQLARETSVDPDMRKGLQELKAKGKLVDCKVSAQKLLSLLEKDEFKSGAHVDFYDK

Structure (SMILES) | IC50 [nM]
CCOC(=O)c1cc2n(CC(C)(C)C)c(=O)c(C(=O)NC3CC3)c(O)n2n1 [Synthesis Example 1, Ethyl 6-(cyclopropylcarbamoyl)-7-hydroxy-4-neopentyl-5-oxo-4,5-dihydropyrazolo[1,5-a]pyrimidine-2-carboxylate] | < 1000
CC(C)(C)Cn1c(=O)c(C(=O)NC2CC2)c(O)n2nc(C(=O)O)cc12 [Synthesis Example 2, 6-(Cyclopropylcarbamoyl)-7-hydroxy-4-neopentyl-5-oxo-4,5-dihydropyrazolo[1,5-a]pyrimidine-2-carboxylic acid] | < 1000
CC(C)(C)Cn1c(=O)c(C(=O)NC2CC2)c(O)n2nc(NC(=O)OC(C)(C)C)cc12 [Synthesis Example 3, Tert-butyl (6-(cyclopropylcarbamoyl)-7-hydroxy-4-neopentyl-5-oxo-4,5-dihydropyrazolo[1,5-a]pyrimidin-2-yl)carbamate] | < 1000
CCOC(=O)c1cnn2c(O)c(C(=O)NC3CC3)c(=O)n(CC(C)C)c12 [Synthesis Example 5, Ethyl 6-(cyclopropylcarbamoyl)-7-hydroxy-4-isobutyl-5-oxo-4,5-dihydropyrazolo[1,5-a]pyrimidine-3-carboxylate] | < 1000
CC(C)Cn1c(=O)c(C(=O)NC2CC2)c(O)n2ncc(C=O)c12 [Synthesis Example 7, N-Cyclopropyl-3-formyl-7-hydroxy-4-isobutyl-5-oxo-4,5-dihydropyrazolo[1,5-a]pyrimidine-6-carboxamide] | < 1000
CC(C)Cn1c(=O)c(C(=O)NC2CC2)c(O)n2ncc(/C=C/C(=O)O)c12 [Synthesis Example 9, (E)-3-(6-(Cyclopropylcarbamoyl)-7-hydroxy-4-isobutyl-5-oxo-4,5-dihydropyrazolo[1,5-a]pyrimidin-3-yl)acrylic acid] | < 1000
CC(C)(C)Cn1c(=O)c(C(=O)NC2CC2)c(O)n2nc(Br)cc12 [Synthesis Example 11, 2-Bromo-N-cyclopropyl-7-hydroxy-4-neopentyl-5-oxo-4,5-dihydropyrazolo[1,5-a]pyrimidine-6-carboxamide] | < 1000
COC(=O)c1cnc(Nc2cc3n(CC(C)(C)C)c(=O)c(C(=O)NC4CC4)c(O)n3n2)cn1 [Synthesis Example 19, Methyl 5-((6-(cyclopropylcarbamoyl)-7-hydroxy-4-neopentyl-5-oxo-4,5-dihydropyrazolo[1,5-a]pyrimidin-2-yl)amino)pyrazine-2-carboxylate] | < 1000
CC(C)(C)Cn1c(=O)c(C(=O)NC2CC2)c(O)n2nc(Nc3cnc(C(=O)O)cn3)cc12 [Synthesis Example 20, 5-((6-(Cyclopropylcarbamoyl)-7-hydroxy-4-neopentyl-5-oxo-4,5-dihydropyrazolo[1,5-a]pyrimidin-2-yl)amino)pyrazine-2-carboxylic acid] | < 1000
CC(C)Cn1c(=O)c(C(=O)NC2CC2)c(O)n2nc(Br)cc12 [Synthesis Example 22, 2-Bromo-N-cyclopropyl-7-hydroxy-4-isobutyl-5-oxo-4,5-dihydropyrazolo[1,5-a]pyrimidine-6-carboxamide] | < 1000
CC(C)Cn1c(=O)c(C(=O)NC2CC2)c(O)n2nc(-c3cccnc3N)cc12 [Synthesis Example 24, 2-(2-Aminopyridin-3-yl)-N-cyclopropyl-7-hydroxy-4-isobutyl-5-oxo-4,5-dihydropyrazolo[1,5-a]pyrimidine-6-carboxamide] | < 1000
CC(C)(C)Cn1c(=O)c(C(=O)NC2CCC2)c(O)n2nc(Br)cc12 [Synthesis Example 25, 2-Bromo-N-cyclobutyl-7-hydroxy-4-neopentyl-5-oxo-4,5-dihydropyrazolo[1,5-a]pyrimidine-6-carboxamide] | < 1000
CC(C)(C)Cn1c(=O)c(C(=O)NC2CCC2)c(O)n2nc(Nc3cnccn3)cc12 [Synthesis Example 26, N-Cyclobutyl-7-hydroxy-4-neopentyl-5-oxo-2-(pyrazin-2-ylamino)-4,5-dihydropyrazolo[1,5-a]pyrimidine-6-carboxamide] | < 1000
CC1(Cn2c(=O)c(C(=O)NC3CC3)c(O)n3nc(Br)cc23)CCOCC1 [Synthesis Example 27, 2-Bromo-N-cyclopropyl-7-hydroxy-4-((4-methyltetrahydro-2H-pyran-4-yl)methyl)-5-oxo-4,5-dihydropyrazolo[1,5-a]pyrimidine-6-carboxamide] | < 1000
CC1(Cn2c(=O)c(C(=O)NC3CC3)c(O)n3nc(Nc4cnccn4)cc23)CCOCC1 [Synthesis Example 28, N-Cyclopropyl-7-hydroxy-4-((4-methyltetrahydro-2H-pyran-4-yl)methyl)-5-oxo-2-(pyrazin-2-ylamino)-4,5-dihydropyrazolo[1,5-a]pyrimidine-6-carboxamide] | < 1000
CC1(Cn2c(=O)c(C(=O)NC3CC3)c(O)n3nc(-c4cccnc4N)cc23)CCOCC1 [Synthesis Example 29, 2-(2-Aminopyridin-3-yl)-N-cyclopropyl-7-hydroxy-4-((4-methyltetrahydro-2H-pyran-4-yl)methyl)-5-oxo-4,5-dihydropyrazolo[1,5-a]pyrimidine-6-carboxamide] | < 1000
CC1(Cn2c(=O)c(C(=O)NC3CCC3)c(O)n3nc(Br)cc23)CCOCC1 [Synthesis Example 30, 2-Bromo-N-cyclobutyl-7-hydroxy-4-((4-methyltetrahydro-2H-pyran-4-yl)methyl)-5-oxo-4,5-dihydropyrazolo[1,5-a]pyrimidine-6-carboxamide] | < 1000
CC1(Cn2c(=O)c(C(=O)NC3CCC3)c(O)n3nc(Nc4cnccn4)cc23)CCOCC1 [Synthesis Example 31, N-Cyclobutyl-7-hydroxy-4-((4-methyltetrahydro-2H-pyran-4-yl)methyl)-5-oxo-2-(pyrazin-2-ylamino)-4,5-dihydropyrazolo[1,5-a]pyrimidine-6-carboxamide] | < 1000
O=C(NC1CC1)c1c(O)n2ncc(C3=CCOCC3)c2n(CC2CCOCC2)c1=O [Synthesis Example 35, N-Cyclopropyl-3-(3,6-dihydro-2H-pyran-4-yl)-7-hydroxy-5-oxo-4-((tetrahydro-2H-pyran-4-yl)methyl)-4,5-dihydropyrazolo[1,5-a]pyrimidine-6-carboxamide] | < 1000
CC(C)(C)Cn1c(=O)c(C(=O)NC2CC2)c(O)n2nc(C(=O)Nc3ccccn3)cc12 [Synthesis Example 41, N6-Cyclopropyl-7-hydroxy-4-neopentyl-5-oxo-N2-(pyridin-2-yl)-4,5-dihydropyrazolo[1,5-a]pyrimidine-2,6-dicarboxamide] | < 1000
CC(C)Cn1c(=O)c(C(=O)NC2CC2)c(O)n2ncc(Br)c12 [Synthesis Example 104, 3-Bromo-N-cyclopropyl-7-hydroxy-4-isobutyl-5-oxo-4,5-dihydropyrazolo[1,5-a]pyrimidine-6-carboxamide] | < 1000
O=C(NC1CC1)c1c(O)n2nc(C3CC3)cc2n(CC2CCOCC2)c1=O [Synthesis Example 135, N,2-Dicyclopropyl-7-hydroxy-5-oxo-4-((tetrahydro-2H-pyran-4-yl)methyl)-4,5-dihydropyrazolo[1,5-a]pyrimidine-6-carboxamide] | < 1000
CC(C)(C)Cn1c(=O)c(C(=O)NC2CC2)c(O)n2ncc(/C=C/C(=O)N3CCOCC3)c12 [Synthesis Example 169, (E)-N-Cyclopropyl-7-hydroxy-3-(3-morpholino-3-oxoprop-1-en-1-yl)-4-neopentyl-5-oxo-4,5-dihydropyrazolo[1,5-a]pyrimidine-6-carboxamide] | < 1000
